Test results: patent publication US10106558B2, “Azolobenzazine compounds, compositions comprising these compounds and their use for controlling invertebrate pests” (BASF SE, priority 2015, dated 2018)
Where two headings read alike, the source gives them in different places.

Key:
Type in all cases: in vivo
[1] = system: Orchid Thrips (Dichromothrips corbetti); assay: Action on orchid thrips, floral-immersion technique; conditions: adult thrips, 72 hours after treatment, read-out: mortality in comparison with untreated controls
Description: Example B2: Action on Orchid Thrips (Dichromothrips Corbetti)
Dichromothrips corbettiadults used for bioassay were obtained from a colony maintained continuously under laboratory conditions. For testing purposes, the test compound is diluted in a 1:1 mixture of acetone:water (vol:vol), plus Kinetic® HV at a rate of 0.01% v/v.
Thrips potency of each compound was evaluated by using a floral-immersion technique. All petals of individual, intact orchid flowers were dipped into treatment solution and allowed to dry in Petri dishes. Treated petals were placed into individual re-sealable plastic along with about 20 adult thrips. All test arenas were held under continuous light and a temperature of about 28° C. for duration of the assay. After 3 days, the numbers of live thrips were counted on each petal. The percent mortality was recorded 72 hours after treatment.

[2] = system: boll weevil (Anthonomus grandis); assay: Action on boll weevil, eggs on insect diet in 96-well microtiter plates; conditions: 120 h, read-out: mortality in comparison with untreated controls
Description: Example B3: Action on Boll Weevil (Anthonomus grandis)
For evaluating control of boll weevil (Anthonomus grandis) the test unit consisted of 96-well-microtiter plates containing an insect diet and 5-10 A. grandis eggs.
(§1) The compounds were formulated using a solution containing 75% v/v water and 25% v/v DMSO. Different concentrations of formulated compounds were sprayed onto the insect diet at 5 μl, using a custom built micro atomizer, at two replications.
After application, microtiter plates were incubated at about 25±1° C. and about 75±5% relative humidity for 5 days. Egg and larval mortality was then visually assessed.

[3] = system: Silverleaf Whitefly (Bemisia argentifolii) (Adults); assay: Action on silverleaf whitefly adults, sprayed cotton plants; conditions: 72 h, 3 days after treatment, read-out: mortality in comparison with untreated controls
Description: Example B4: Action on Silverleaf Whitefly (Bemisia argentifolii) (Adults)
(§2) The active compounds were formulated by a Tecan liquid handler in 100% cyclohexanone as a 10,000 ppm solution supplied in tubes. The 10,000 ppm solution was serially diluted in 100% cyclohexanone to make interim solutions. These served as stock solutions for which final dilutions were made by the Tecan in 50% acetone:50% water (v/v) into 5 or 10 ml glass vials. A nonionic surfactant (Kinetic®) was included in the solution at a volume of 0.01% (v/v). The vials were then inserted into an automated electrostatic sprayer equipped with an atomizing nozzle for application to plants/insects.
Cotton plants at the cotyledon stage (one plant per pot) were sprayed by an automated electrostatic plant sprayer equipped with an atomizing spray nozzle. The plants were dried in the sprayer fume hood and then removed from the sprayer. Each pot was placed into a plastic cup and about 10 to 12 whitefly adults (approximately 3-5 days old) were introduced. The insects were collected using an aspirator and a nontoxic Tygon® tubing connected to a barrier pipette tip. The tip, containing the collected insects, was then gently inserted into the soil containing the treated plant, allowing insects to crawl out of the tip to reach the foliage for feeding. Cups were covered with a reusable screened lid. Test plants were maintained in a growth room at about 25° C. and about 20-40% relative humidity for 3 days, avoiding direct exposure to fluorescent light (24 hour photoperiod) to prevent trapping of heat inside the cup. Mortality was assessed 3 days after treatment, compared to untreated control plants.

[4] = system: Mediterranean fruitfly (Ceratitis capitata); assay: Action on Mediterranean fruitfly, eggs on insect diet in microtiter plates; conditions: 120 h, egg and larval mortality visually assessed after 5 days, read-out: mortality in comparison with untreated controls
Description: Example B5: Action on Mediterranean Fruitfly (Ceratitis capitata)
For evaluating control of Mediterranean fruitfly (Ceratitis capitata) the test unit consisted of microtiter plates containing an insect diet and 50-80 C. capitata eggs.
as §1
After application, microtiter plates were incubated at about […] and about 80+5% relative humidity for 5 days. Egg and larval mortality was then visually assessed.

[5] = system: tobacco budworm (Heliothis virescens); assay: Action on tobacco budworm, eggs on insect diet in 96-well microtiter plates; conditions: 120 h, egg and larval mortality visually assessed after 5 days, read-out: mortality in comparison with untreated controls
Description: Example B6: Action on Tobacco Budworm (Heliothis virescens)
For evaluating control of tobacco budworm (Heliothis virescens) the test unit consisted of 96-well-microtiter plates containing an insect diet and 15-25 H. virescens eggs.
The compounds were formulated using a solution containing 75% v/v water and 25% v/v DMSO. Different concentrations of formulated compounds were sprayed onto the insect diet at 10 μl, using a custom built micro atomizer, at two replications.
After application, microtiter plates were incubated at about 28±1° C. and about 80±5% relative humidity for 5 days. Egg and larval mortality was then visually assessed.

[6] = system: vetch aphid (Megoura viciae); assay: Action on vetch aphid, broad bean leaf disks in 24-well microtiter plates; conditions: foliar, 120 h, adult aphids on treated leaf disks, 5 days, read-out: mortality in comparison with untreated controls
Description: Example B7: Action on Vetch Aphid (Megoura viciae)
For evaluating control of vetch aphid (Megoura viciae) through contact or systemic means the test unit consisted of 24-well-microtiter plates containing broad bean leaf disks.
The compounds were formulated using a solution containing 75% v/v water and 25% v/v DMSO. Different concentrations of formulated compounds were sprayed onto the leaf disks at 2.5 μl, using a custom built micro atomizer, at two replications.
After application, the leaf disks were air-dried and 5-8 adult aphids placed on the leaf disks inside the microtiter plate wells. The aphids were then allowed to suck on the treated leaf disks and incubated at about 23±1° C. and about 50±5% relative humidity for 5 days. Aphid mortality and fecundity was then visually assessed.

[7] = system: Diamond Back Moth (Plutella xylostella); assay: Action on diamond back moth, dipped cabbage leaves; conditions: 3rd instar larvae, 72 hours after treatment, read-out: mortality in comparison with untreated controls
Description: Example B9: Action on Diamond Back Moth (Plutella xylostella)
The active compound is dissolved at the desired concentration in a mixture of 1:1 (vol:vol) distilled water:acetone. Surfactant (Kinetic® HV) is added at a rate of 0.01% (vol/vol). The test solution is prepared at the day of use.
Leaves of cabbage were dipped in test solution and air-dried. Treated leaves were placed in petri dishes lined with moist filter paper and inoculated with ten 3rd instar larvae. Mortality was recorded 72 hours after treatment. Feeding damages were also recorded using a scale of 0-100%.

[8] = system: Southern Armyworm (Spodoptera eridania), 2nd instar larvae; assay: Action on southern armyworm 2nd instar larvae, sprayed lima bean plants; conditions: 96 h, 4 days after treatment, read-out: mortality in comparison with untreated controls
Description: Example B10: Action on Southern Armyworm (Spodoptera eridania), 2nd Instar Larvae
as §2, with “into 10” for “into 5”, “or 20” for “or 10”
Lima bean plants (variety Sieva) were grown 2 plants to a pot and selected for treatment at the 1st true leaf stage. Test solutions were sprayed onto the foliage by an automated electrostatic plant sprayer equipped with an atomizing spray nozzle. The plants were dried in the sprayer fume hood and then removed from the sprayer. Each pot was placed into perforated plastic bags with a zip closure. About 10 to 11 armyworm larvae were placed into the bag and the bags zipped closed. Test plants were maintained in a growth room at about 25° C. and about 20-40% relative humidity for 4 days, avoiding direct exposure to fluorescent light (24 hour photoperiod) to prevent trapping of heat inside the bags. Mortality and reduced feeding were assessed 4 days after treatment, compared to untreated control plants.

[9] = system: green peach aphid (Myzus persicae) (mixed life stages); assay: Action on green peach aphid, liquid artificial diet under artificial membrane; conditions: 72 h, read-out: mortality in comparison with untreated controls
Description: Example B8: Action on Green Peach Aphid (Myzus persicae) (Mixed Life Stages)
For evaluating control of green peach aphid (Myzus persicae) through systemic means the test unit consisted of 96-well-microtiter plates containing liquid artificial diet under an artificial membrane.
The compounds were formulated using a solution containing 75% v/v water and 25% v/v DMSO. Different concentrations of formulated compounds were pipetted into the aphid diet, using a custom built pipetter, at two replications.
After application, 5-8 adult aphids were placed on the artificial membrane inside the microtiter plate wells. The aphids were then allowed to suck on the treated aphid diet and incubated at about 23±1° C. and about 50±5% relative humidity for 3 days. Aphid mortality and fecundity was then visually assessed.

[10] = system: yellow fever mosquito (Aedes aegypti); assay: whole plant or invertebrate; conditions: 48 h, larval mortality visually assessed after 2 days, read-out: mortality in comparison with untreated controls
Description: Example B1: Action on Yellow Fever Mosquito (Aedes aegypti)
For evaluating control of yellow fever mosquito (Aedes aegypti) the test unit consisted of 96-well-microtiter plates containing 200 μl of tap water per well and 5-15 freshly hatched A. aegypti larvae.
The active compounds were formulated using a solution containing 75% (v/v) water and 25% (v/v) DMSO. Different concentrations of formulated compounds or mixtures were sprayed onto the insect diet at 2.5 μl, using a custom built micro atomizer, at two replications.
After application, microtiter plates were incubated at 28+1° C., 80+5% RH for 2 days. Larval mortality was then visually assessed.

[11] = 800 ppm, egg and larval mortality visually assessed after 5 days
[12] = 800 ppm, adult aphids on treated aphid diet, 3 days

CC(C)c1ccccc1N1C(=O)CS/C1=N\N=C\c1ccc2c(ccc3c2ncn3-c2ccc(C(F)(F)F)nn2)n1 [Compound C-10, (2Z)-3-(2-isopropylphenyl)-2-[(E)-[3-[6-(trifluoromethyl)pyridazin-3-yl]imidazo[4,5-f]quinolin-7-yl]methylenehydrazono]thiazolidin-4-one]
≥ 75%: mortality at 500 ppm [1] | mortality at 800 ppm [2, 11] | mortality at 500 ppm [3] | mortality at 800 ppm [4] | mortality at 800 ppm [5] | mortality at 800 ppm [6] | mortality at 500 ppm [7] | mortality at 500 ppm [8]

Cc1cccc(C)c1N1CCS/C1=N/N=C/c1ccc2c(ccc3c2ncn3-c2ccc(OC(F)(F)F)cc2)n1 [Compound C-30, (E)-3-(2,6-dimethylphenyl)-N-[(E)-[3-[4-(trifluoromethoxy)phenyl]imidazo[4,5-f]quinolin-7-yl]methyleneamino]thiazolidin-2-imine]
≥ 75%: mortality at 800 ppm [2, 11] | mortality at 800 ppm [5] | mortality at 800 ppm [9, 12] | mortality at 500 ppm [7]

CC(C)c1ccccc1N1/C(=N/N=C/c2ccc3c(ccc4c3ncn4-c3ccc(OC(F)(F)F)cc3)n2)SCC1(C)O (centres unmarked) [Compound C-9, (2Z)-3-(2-isopropylphenyl)-4-methyl-2-[(E)-[3-[4-(trifluoromethoxy)phenyl]imidazo[4,5-f]quinolin-7-yl]methylenehydrazono]thiazolidin-4-ol]
≥ 75%: mortality at 800 ppm [10] | mortality at 500 ppm [1] | mortality at 800 ppm [2, 11] | mortality at 500 ppm [3] | mortality at 800 ppm [4] | mortality at 800 ppm [5] | mortality at 800 ppm [9, 12] | mortality at 500 ppm [7] | mortality at 500 ppm [8]

CC(OC(=O)Nc1ccc2c(ccc3c2ncn3-c2ccc(OC(F)(F)F)cc2)n1)c1ccc(Cl)cn1 (centres unmarked) [Compound C-11, 1-(5-chloro-2-pyridyl)ethyl N-[3-[4-(trifluoromethoxy)phenyl]imidazo[4,5-f]quinolin-7-yl]carbamate]
≥ 75%: mortality at 800 ppm [10] | mortality at 800 ppm [2] | mortality at 800 ppm [9]

Cc1ccc(C(C)C)c(NC(=S)N/N=C/c2ccc3c(ccc4c3ncn4-c3ccc(OC(F)(F)F)cc3)n2)c1 [Compound C-5, 1-(2-isopropyl-5-methyl-phenyl)-3-[(E)-[3-[4-(trifluoromethoxy)phenyl]imidazo[4,5-f]quinolin-7-yl]methyleneamino]thiourea]
≥ 75%: mortality at 800 ppm [10] | mortality at 500 ppm [1] | mortality at 800 ppm [2, 11] | mortality at 800 ppm [4] | mortality at 800 ppm [5] | mortality at 800 ppm [9, 12] | mortality at 500 ppm [7] | mortality at 500 ppm [8]

CC(C)c1ccccc1/N=C1\SCC(=O)N1/N=C/c1ccc2c(ccc3c2ncn3-c2ccc(OC(F)(F)F)cc2)n1 [Compound C-8, (2Z)-2-(2-isopropylphenyl)imino-3-[(E)-[3-[4-(trifluoromethoxy)phenyl]imidazo[4,5-f]quinolin-7-yl]methyleneamino]thiazolidin-4-one]
≥ 75%: mortality at 800 ppm [10] | mortality at 500 ppm [1] | mortality at 800 ppm [2, 11] | mortality at 500 ppm [3] | mortality at 800 ppm [4] | mortality at 800 ppm [5] | mortality at 500 ppm [7] | mortality at 500 ppm [8]

CC(C)c1ccccc1/N=C1\SCC(=O)N1/N=C/c1cc2ccc3c(ncn3-c3ccc(OC(F)(F)F)cc3)c2cn1 [Compound C-28, (2Z)-2-(2-isopropylphenyl)imino-3-[(E)-[3-[4-(trifluoromethoxy)phenyl]imidazo[4,5-h]isoquinolin-7-yl]methyleneamino]thiazolidin-4-one]
≥ 75%: mortality at 800 ppm [10] | mortality at 800 ppm [2, 11] | mortality at 800 ppm [4] | mortality at 800 ppm [5] | mortality at 800 ppm [6] | mortality at 500 ppm [7] | mortality at 500 ppm [8]
